Entries after “also recorded” stand apart in the source; their conditions may differ. Where no end group is shown, it is not given here.
Key:
isolated mitochondria = test: Mitochondrial swelling followed spectrophotometrically at 520 nm (FIG. 3A); type: biochemical, rats; conditions: 0.5 mM, positive control
Protocol: Consistent with these observations, molecules such as Bcl-2 which inhibit apoptosis inhibit mitochondrial swelling. Briefly, mitochondria were prepared as previously described (Ellerby et al. J. Neurosci. 17:6165-6178 (1997)) except for the following modifications. The rats were sacrificed by CO2 inhalation without fasting and the mitochondria were isolated in MIB buffer (210 mM mannitol, 70 mM sucrose, 0.05% BSA, 1 mM EGTA, 5 mM Hepes-NaOH, pH 7.4). The mitochondrial pellet samples resuspended in MCB buffer (300 mM mannitol, 10 mM KH2 PO4, 0.1% BSA, pH 7.2) and applied to a discontinuous sucrose gradient (1.6 M sucrose, 10 mM KH2 PO4, pH 7.5; 1.2 M sucrose, 10 mM KH2 PO4, pH 7.5) were centrifuged at 48,500 g for 1 hour. […] The mitochondrial pellets were collected, resuspended in MSB, and stored on ice. After the addition of 50 μM of the peptide, mitochondrial swelling was followed spectrophotometrically at 520 nm (Petronilli et al. J. Biol. Chem. 269:16638-16642 (1994)) in CFS (220 mM mannitol, 68 mM sucrose, 2 mM NaCl, 5 mM KH2 PO4, 2 mM MgCl2, 5 mM succinate, 10 mM Hepes-NaOH, 2 mM ATP, 50 μg/ml creatine kinase, 10 mM phosphocreatine, 0.75 μg/ml rotenone, pH 7.4).

293T cells = test: Apoptosis in 293T cells expressing FKBP/p75^NTR chimeras with or without FK1012; type: cell-based; conditions: 2 μM FK1012, 35 μM tamoxifen
Description: The FKBP12-tagging vector MF1E/MF3E, which included an amino-terminal myristylation site for membrane insertion (Spencer et al. Science 262:1019-1024 (1993)), contains one and three repeats of the FK-binding protein (FKBP) sequence. The FKBP12 vector served as a PCR template and was amplified using primers flanked by Nhe I (5' primer) or Nde I (3' primer) sites to produce DNA fragments consisting of one or three FK-binding domains (FKBP). The resulting PCR products contained either one or three FKBP sequence repeats and were subcloned into pcDNA3.1. A DNA fragment encoding an intracytoplasmic form of p75^NTR was removed from the pUC18-p75 plasmid by digestion with Nde I and Bam HI, and the DNA fragment was ligated to the carboxy-terminus of the FKBP sequences within the pcDNA3.1-FKBP construct. The resulting two expression vectors encoded FKBP/p75^NTR chimeras comprising one or three FKBP repeats at the amino-terminus fused to an intracytoplasmic form of p75^NTR at the carboxy-terminus.
The stimulation of cellular apoptosis by Fas and TNFR I is induced by ligand binding which triggers multimerization of Fas and TNFR I. The assembly of such a death-inducing signaling complex contributes to cellular apoptosis by activating caspase-8. The effect that dimerization or multimerization has on the ability of p75^NTR to stimulate apoptosis was analyzed. […]

PC3 = test: Cell viability after peptide treatment, PC3; type: cell-based, human; conditions: 50 μM stated for tat-GG-SATLDALLAALRRI; 18 hours
Protocol: (§1) Briefly, NTera 2 human neuronal cells, R2 neural cells, CSM14.1 neural cells, LNCaP cells, SH-SY5Y human neuroblastoma cells and PC12 NRA5 cells were grown in DMEM/F12 (50/50) supplemented with 5% fetal bovine serum and seeded onto 96-well plates. […] The purified peptides were dissolved in tissue culture grade water and diluted to 50 μM and 100 μM in serum free medium and directly added to the cells in 96-well plates. The cells were incubated at 37° C. for 18 hours and 20 μM propidium iodide was added. Cell viability was determined using a fluorimeter as previously described (Kane et al. J. Neurosci. Res. 40:269-275 (1995)).

PC12 NRA5 cells = conditions: 100 μM peptide; 18 hours
Protocol: Briefly, NTera 2 human neuronal cells, R2 neural cells, CSM14.1 neural cells, LNCaP cells, SH-SY5Y human neuroblastoma cells and PC12 NRA5 cells were grown in DMEM/F12 (50/50) supplemented with 5% fetal bovine serum and seeded onto 96-well plates. The peptides were synthesized and HPLC purified (Coast Scientific, San Diego, Calif.). The purified peptides were dissolved in tissue culture grade water and diluted to 50 μM and 100 μM in serum free medium and directly added to the cells in 96-well plates. The cells were incubated at 37° C. for 18 hours and 20 μM propidium iodide was added. Cell viability was determined using a fluorimeter as previously described (Kane et al. J. Neurosci. Res. 40:269-275 (1995)).

[1] = tested on: NTera 2 human neuronal cells; test: Cell viability after peptide treatment, NTera 2; type: cell-based; conditions: 50 μM stated for tat-GG-SATLDALLAALRRI; 18 hours
Protocol: as §1

LNCaP cells = test: Cell viability after peptide treatment, LNCaP; type: cell-based; conditions: 50 μM stated for tat-GG-SATLDALLAALRRI; 18 hours
Protocol: as §1

COS-7 = test: Cell viability after peptide treatment, COS-7; type: cell-based; conditions: 50 μM stated for tat-GG-SATLDALLAALRRI; 18 hours
Protocol: as §1

[2] = tested on: NTera 2, R2, CSM14.1, LNCaP, SH-SY5Y and PC12 NRA5 cells; test: Induction of cell death by peptides added to cells (propidium iodide, Table 1); type: cell-based; conditions: peptide 50 μM and 100 μM in serum free medium, 18 hours
Protocol: A region of a dependence polypeptide that mediates apoptosis in cells was analyzed for its ability to stimulate apoptosis in cells. […] The effect of replacing leucine with lysine at position 7 (purple, […]; SEQ ID NO:41; tat-purple, tat-GG-[…]; SEQ ID NO:42), removing the carboxy-terminal "RRI" sequence (gray, SATLDALLAAL; SEQ ID NO:43; tat-gray, tat-GG--SATLDALLAAL; SEQ ID NO:44) or amino-terminal "SATLD" sequence (green; […]; SEQ ID NO:45) on the proapoptotic activity of a dependence peptide was examined. […] The 12 amino acid HIV tat protein fragment ([…]; SEQ ID NO:52; hereinafter termed "tat"), which facilitates cellular entry, also was included on the amino terminus of some of the peptides tested. […] For convenience, the hyphen in the above amino acid sequences is a nomenclature intended to set apart the proapoptotic dependence peptides and variants thereof or control peptides from other amino acid residues contained in the peptide.

[3] = tested on: SH-SY5Y human neuroblastoma cells; test: Cell death by tat-linked peptides and mutated variants in SH-SY5Y cells (FIG. 2); type: cell-based; conditions: relative to unmutated tat-GG-SATLDALLAALRRI
Protocol: To further analyze the effect of particular point mutations on apoptosis, additional studies employing dependence peptides and mutated variants linked to tat were performed in SH-SY5Y cells. The results shown in FIG. 2 are of studies in which quadruplicate samples were averaged, and the studies were repeated 2 to 10 times for each peptide. Each column represents the percentage cell death and the bars indicate the standard error. The amount of peptide added to the cells is indicated above each column.

| Molecule | cell viability, PC3 (PC3) [%] | cell viability, NTera 2 [1] [%] | cell viability, LNCaP (LNCaP cells) [%] | cell viability, COS-7 (COS-7) [%] | further results |
| --- | --- | --- | --- | --- | --- |
| [Ca+2].[Cl-].[Cl-] [calcium chloride] | – | – | – | – | mitochondrial swelling (decreased absorbance at 520 nm) (isolated mitochondria): rapid swelling |
| FK1012 | – | – | – | – | apoptosis of cells containing single copy or triple copy FKBP/p75^NTR protein chimera (293T cells): apoptosis was blocked |
| GRKKRRQRRRPPGGDLSLARLATARLAI [tat-yellow, reference compound] | 97 | – | – | – | – |
| GRKKRRQRRRPPGGKDRNLRRITRMVLV [tat-turquoise, reference compound] | 87.9 | 67.6 | 46.7 | – | cell viability, NRA 5 cells (PC12 NRA5 cells): 95.7% |
| GRKKRRQRRRPPGGSATLDAKLAALRRI [tat-purple] | 92.8 | 69.3 | – | 97.8 | – |
| GRKKRRQRRRPPGGSATLDALLAAL [tat-gray, tat-GG-SATLDALLAAL] | 90.5 | 76.7 | 59.1 | 97.1 | – |
| GRKKRRQRRRPPGGSATLDALLAALRRI [tat-blue] | 4.2 | 1.3 | 0 | 1.5 | cell viability, NRA 5 cells (PC12 NRA5 cells): 0% |
| INLKALAALAKKIL [MP] | – | – | – | – | Effect on apoptosis [2]: underwent apoptosis; also recorded: Apoptotic |
| tat-GG-SATLDALLAALOOI (GRKKRRQRRRPPGGSATLDALLAALQQI) [arginines at positions 12 and 13 replaced with glutamine] | – | – | – | – | decrease of the ability to stimulate SH-SY5Y cell death [3]: 80% |

— US6235872A, “Proapoptotic peptides dependence polypeptides and methods of use” (The Burnham Institute, priority 1998, dated 2001)
